Data published in patent US12298308B2, “Neoadjuvant chemotherapy induces breast cancer metastasis through a TMEM-mediated mechanism” (Albert Einstein College of Medicine, priority 2017, dated 2025).

What was measured:
breast tumors = assay: Tumor growth in mouse breast carcinoma models; assay type: in vivo; settings: 10 mg/Kg paclitaxel every five days, three times; vs non-treated controls
Excerpt: (§1) Herein, the possibility was examined that neoadjuvant paclitaxel promotes TMEM assembly and cancer cell dissemination and metastasis. This hypothesis was investigated in the following breast carcinoma models: (i) transgenic MMTV-PyMT mice bearing spontaneous breast tumors, (ii) FVB mice transplanted orthotopically with tumors from MMTV-PyMT donors, and (iii) two patient-derived xenografts (PDX), HT17 and HT33, developed previously in our laboratory (31). […] Treatment of all groups began at the early carcinoma stage (tumor size of ˜0.3 cm) when there is minimal or absent necrosis. It was decided to work with the early-stage PyMT mouse mammary carcinoma model because it more accurately reflects clinically relevant scenarios where most women present with small tumors of <2 cm (32). At the end of treatment all tumors were histologically classified as invasive carcinomas.
(§2) Drug Administration. The following drugs were administered in mice: Paclitaxel was given at 10 mg/Kg i.v every 5 days for 2 weeks; Doxorubicin was given at 5 mg/Kg i.v. every 5 days for 2 weeks; Cyclophosphamide was given at 120 mg/Kg i.p. only once; Rebastinib was given at 10 mg/Kg per os, every 3-4 days for 4 weeks.
Animals and Animal Procedures. MMTV-PyMT mice were bred in-house at the Albert Einstein College of Medicine (AECOM). Generation of MMTV-PyMT Mena^−/− has been described previously (28). […]

TMEM = TMEM score by triple-stain immunohistochemistry in mouse breast tumors; assay type: in vivo
Excerpt: as §1, with “This” for “Herein, the possibility was examined that neoadjuvant paclitaxel promotes TMEM assembly and cancer cell dissemination and metastasis. This”, “(32).” for “(32). At the end of treatment all tumors were histologically classified as invasive carcinomas.”
as §2
Animals and Animal Procedures. MMTV-PyMT mice were bred in-house at the Albert Einstein College of Medicine (AECOM). Generation of MMTV-PyMT Mena^−/− has been described previously (28). CFP- or Dendra2-labeled mammary carcinoma cells were generated on the FVB background by co-injection of Tg(MMTV-iCRE)1jwp together with Tg(PCAG-loxp-CATstop-loxp-CFP) or Tg(loxP-stop-loxP-PDendra2)jwp plasmids, respectively, by conventional methods in the Albert Einstein Transgenic Mouse Facility. All syngeneic transplantation models were generated through orthotopic transplantation of 1 mm×1 mm tumor chunks, using tumors of 1 cm-diameter from 12-16-week old MMTV-PyMT mena−/− or mena+/+ donor mice into 5-6 week-old FVB recipients. Tumor chunks were implanted on the fourth mammary pad on the left side. The generation of the ER^− HT17 and ER^+ HT33 patient-derived xenografts has been described previously (31). Animal handling and associated procedures were approved by the Institutional Animal Care and Use Committee (IACUC). Additional information is detailed in Supplementary Methods.
Histology and TMEM Immunohistochemistry. Breast tumors and lungs were isolated, rinsed in PBS, fixed in 10% neutral buffered formalin for 48 hours, dehydrated and embedded in paraffin. Sections (5 μm) were stained with H & E or TMEM triple-stain immunohistochemistry, as previously described (3).

Mena^INV = Mena^INV protein expression by immunofluorescence in mouse tumors; assay type: in vivo; settings: PyMT-spontaneous and HT17-xenograft models; p<0.0001
Excerpt: (§3) To test this hypothesis, qRT-PCR analysis was first performed for total Mena (panMena), Mena11a and Mena^INV on formalin-fixed paraffin-embedded (FFPE) tumors from all mouse models. […] As shown in the specific Mena^INV IF, the pattern of Mena^INV expression in PyMT mice was heterogeneous (FIG. 4F), consistent with previous observations (40). […] In addition, there was an inverse correlation for the anti-metastatic Mena11a (p<0.01, […]).
Immunofluorescence. Slides were deparaffinized by melting at 60° C. in an oven equipped with a fan for 20 minutes, followed by 2× xylene treatment for 20 minutes. Slides were rehydrated and antigen retrieval was done in 1 mM EDTA (pH 8.0) or 1× citrate buffer (pH 6.0) (Diagnostic BioSystems) at 97° C. for 20 minutes in a conventional steamer. Endogenous peroxidase was blocked by using 0.3% hydrogen peroxide in water, followed by incubation of slides in a blocking buffer solution (10% FBS, 1% BSA, 0.0025% fish skin gelatin in 0.05% PBST) for 60 minutes at room temperature. […]

Mena = Mena isoform gene expression by qRT-PCR on FFPE tumors; assay type: in vivo, mouse
Excerpt: as §3
Gene Expression Analysis. Total RNA was extracted from formalin-fixed paraffin-embedded (FFPE) tissues using deparaffinization solution (Qiagen) and RNeasy FFPE Kit (Qiagen), followed by DNase treatment. An RT-PCR method SYBR Green (Qiagen) was used to measure expression levels of total Mena (PanMena), as well as of the specific Mena isoforms, Mena11a and Mena^INV, as described (29), with slight modifications, as detailed in Supplementary Methods. Mena^Calc expression has been previously defined as the expression level of all Mena isoforms combined after subtraction of Mena 11a from PanMena (2).

In the case of CC(=O)O[C@H]1C(=O)[C@@]2(C)[C@H]([C@H](OC(=O)c3ccccc3)[C@]3(O)C[C@H](OC(=O)[C@H](O)[C@@H](NC(=O)c4ccccc4)c4ccccc4)C(C)=C1C3(C)C)[C@]1(OC(C)=O)CO[C@@H]1C[C@@H]2O [paclitaxel], the tumor growth (breast tumors) is reported as “delayed tumor growth”, the “TMEM score, fold higher compared to non-treated controls” value (TMEM; all experimental models tested, 10 mg/Kg every five days, three times, p<0.001) is reported as 2- to 3 fold and the “overall TMEM score (TMEM assembly)” value (TMEM; single agent vs vehicle, PyMT-transplantation and HT17 xenograft) is reported as “significant increases”. For the same compound, the “Mena^INV expression at the protein level” value (Mena^INV) was “increased expression”, the “expression of Mena11a” value (Mena) was “not that of the anti-metastatic Mena11a” and the “expression of Mena^Calc” value (Mena; p<0.01) was “significantly increased”. The “expression of Mena^INV” value (Mena; p<0.01) was “significantly increased” and the “expression of PanMena” value (Mena; p<0.01) was “significantly increased”.
